In patent publication US20200360331A1, “COMPOSITIONS COMPRISING 15-HEPE AND/OR 15-HETrE AND METHODS OF TREATING OR PREVENTING CARDIOMETABOLIC DISEASE, METABOLIC SYNDROME, AND/OR RELATED DISEASES” (Afimmune Limited, priority 2019, published 2020):

Experiments:
TIMP-1 = assay: UUO study: quantitative RT-PCR of kidney, TIMP-1; assay type: in vivo, C57BL/6 mice; settings: UUO mice kidney
Protocol: (§1) Quantitative RT-PCR: Total ribonucleic acid (RNA) was extracted from kidney samples using RNAiso (Takara Bio, Japan) according to the manufacturer's instructions. One μg of RNA was reverse-transcribed using a reaction mixture containing 4.4 micromolar (mM) of magnesium chloride (MgCl2) (F. Hoffmann-La Roche, Switzerland), 40 U RNase inhibitor (Toyobo, Japan), 0.5 mM dNTP (Promega, USA), 6.28 μM random hexamer (Promega), 5× first strand buffer (Promega), 10 mM dithiothreitol (Invitrogen, USA) and 200 U MMLV-RT (Invitrogen) in a final volume of 20 μL. The reaction was carried out for 1 hour at 37° C., followed by 5 minutes at 99° C. Real-time PCR was performed using real-time PCR DICE and TB Green™ Premix Ex Taq™ II (Takara Bio). To calculate the relative microRNA (mRNA) expression level, the expression of each gene (e.g., α-SMA, TIMP-1, TGF-β and Collagen Type 1) was normalized to that of reference gene 36B4 (gene symbol: Rplp0). Information regarding the PCR-primer sets and the plate layout are described in Tables 1 and 2.

TGF-β = assay: BDL study: quantitative RT-PCR of liver, TGF-β; assay type: in vivo, C57BL/6J mice; settings: BDL mice liver
Protocol: as §1, with “from liver” for “from kidney”, “4.4 mM” for “4.4 micromolar (mM) of”, “relative mRNA” for “relative microRNA (mRNA)”, “gene (α-SMA,” for “gene (e.g., α-SMA,”, “Tables 8” for “Tables 1”, “and 9.” for “and 2.”

BDL-operated mice = assay: BDL study: serum biochemistry (ALT, total bilirubin); assay type: in vivo, C57BL/6J mice; settings: for Serum ALT / Serum Total Bilirubin: BDL mice
Protocol: BDL Surgery: On Day 0 of the study, BDL surgery was performed under pentobarbital (Kyoritsu Seiyaku, Japan) anesthesia. The mouse's hair was first shaved, the abdominal cavity cut open, and the common bile duct was ligated twice with 7-0 surgical silk. The mouse's peritoneum and the skin were closed with sutures, and the mice were transferred to a clean cage (e.g., resting cage) until recovered from anesthesia. Sham operated mice had their common bile duct exposed but not ligated.
Sample Collection: For serum samples, non-fasting blood was collected in serum separate tubes without anticoagulant through direct cardiac puncture and centrifuged at 3,500×g for 4 minutes at 4° C. The supernatant was collected and stored at −80° C. for biochemistry (30 μL) and shipping (all the remaining). For liver samples, left lateral lobe was collected and cut into 6 pieces. Two pieces of left lateral lobe were fixed in Bouin's solution and then embedded in paraffin. Samples were stored at room temperature for histological analysis. The other 2 pieces of left lateral lobe were embedded in O.C.T. compound and quick frozen in liquid nitrogen. Samples were stored at −80° C. The remaining pieces of left lateral lobe was snap frozen in liquid nitrogen and stored at −80° C. for gene expression analyses. Right medial lobe, left medial lobe, right lobe and caudate lobe were snap frozen in liquid nitrogen and stored at −80° C. for shipping.

NAFLD patients = assay: Phase IIa NAFLD study: hepatic fat by CAP; assay type: in vivo, human; settings: patients diagnosed with NAFLD
Protocol: The study was planned to include 96 evaluable patients with 32 patients randomized per treatment group. […] Liver stiffness and CAP: Liver stiffness and CAP were assessed using transient elastography (e.g., FibroScan® 502 Touch model or equivalent). Patients were fasted and scanned at the same time of the day, if possible, for baseline (Week 0) and Visit 10 (Week 16). For this assessment the following conditions were met: patients were lying in dorsal decubitus position with the right arm in maximal abduction behind the head, in a similar position to that used for liver biopsy (LB); the tip of the transducer was placed on the skin between the ribs over the right lobe of the liver (the physician took the measurements with the probe placed in the intercostal space); during the FibroScan® examination the choice of M+ or XL+ probe was determined by the Automatic Probe Selection tool (APS) (If, the APS tool advises to use the “XL+ probe” or “switch” continuously between “M+ and XL+ probe”, only the XL+ probe was used); and the operator, assisted by an ultrasonic time motion image, located a portion of the liver which is free of large vascular structures (the depth of measurement was between 35-75 mm for the XL+ probe and 25-65 mm for the M+ probe and the explored volume will be 3 cm^3). […] The final stiffness and CAP values was recorded as median values of valid measurements.

[1] = relative mRNA normalized to 36B4, 50 mg/kg PO QD Day 0-13
[2] = relative mRNA normalized to 36B4, 500 mg/kg PO QD Day 0-13
[3] = 50 mg/kg PO QD Day 0-13, Day 14
[4] = 250 mg/kg PO QD Day 0-13, Day 14
[5] = 500 mg/kg PO QD Day 0-13, Day 14
[6] = BDL mice, 50, 250 and 500 mg/kg

## CC/C=C\CC(O)/C=C/C=C\C/C=C\C/C=C\CCCC(=O)O (stereo not shown) [DS102, 15-hydroxy-eicosa-5Z,8Z,11Z,13E,17Z-pentaenoic acid]
TIMP-1; [1]
  TIMP-1 gene expression: 138.30 ± 30.39
TIMP-1; [2]
  TIMP-1 gene expression: 124.80 ± 28.60
TGF-β; 500 mg/kg
  TGF-β mRNA expression level compared with the Vehicle group: significant decrease
TGF-β; DS102 treatment groups
  TGF-β mRNA expression level vs Vehicle group: no significant differences
TGF-β; [1]
  TGF-β gene expression: 1.48 ± 0.48
TGF-β; relative mRNA normalized to 36B4, 250 mg/kg PO QD Day 0-13
  TGF-β gene expression: 1.50 ± 0.44
TGF-β; [2]
  TGF-β gene expression: 1.00 ± 0.23
BDL-operated mice; [3]
  Serum ALT: 402 ± 112 U/L
  Serum Total Bilirubin: 26.8 ± 6.9 mg/dL
BDL-operated mice; [4]
  Serum ALT: 351 ± 155 U/L
  Serum Total Bilirubin: 23.5 ± 9.8 mg/dL
BDL-operated mice; [5]
  Serum ALT: 383 ± 147 U/L
  Serum Total Bilirubin: 26.2 ± 6.1 mg/dL
BDL-operated mice; [6]
  serum ALT level vs Vehicle group: no significant differences
  serum total bilirubin level vs Vehicle group: no significant differences
NAFLD patients
  hepatic fat content as assessed by CAP: reduced
